The subject of the test is lethal dose of SEB in D-galactosamine-treated mouse model. Details: species or system BALB/c mice. As to conditions: in vivo.

Where “and” joins values, the source holds several entries; their conditions need not be identical. Equal entries are not always repeated.

For the substance “lcT N K K K V T A Q E L D [pSEBLC(150–161)]”, the “Percent Survival” value was 29% and 22%.

These data come from US7060277B2 (priority 1996, dated 2006).
